Laboratory results published in patent publication US20170044230A1 (USTAV ORGANICKE CHEMIE A BIOCHEMIE AV CR, V.V.I., priority 2014, published 2017).
“Also recorded” adds a separate entry of the source. Values belong to the compound of their own block, whether it stands above or below them. Non-standard residues stand in square brackets, D forms with d. Residues, ends and D or L forms follow the SMILES beside them. *: point of attachment. 1Nal = N[C@@H](Cc1cccc2ccccc12)C(=O)O; Palmitoyl = CCCCCCCCCCCCCCCC(=O)*; Myristoyl = CCCCCCCCCCCCCC(=O)*; Cha = N[C@@H](CC1CCCCC1)C(=O)O; Octanoyl = CCCCCCCC(=O)*; Dap = NC[C@H](N)C(=O)O; Sar = CNCC(=O)O

Legend:
human GHS-R1a receptor = target: T1, human GHS-R1a receptor (Homo sapiens, UniProt Q92847); test: Competitive binding studies (displacement of 125I-ghrelin); settings: relative to ghrelin = 100
T1 construct: purchased Multispan, Hayward, Calif., USA; host or cells: HEK293T cells, isolated plasma membranes
T1 sequence (Q92847 whole entry): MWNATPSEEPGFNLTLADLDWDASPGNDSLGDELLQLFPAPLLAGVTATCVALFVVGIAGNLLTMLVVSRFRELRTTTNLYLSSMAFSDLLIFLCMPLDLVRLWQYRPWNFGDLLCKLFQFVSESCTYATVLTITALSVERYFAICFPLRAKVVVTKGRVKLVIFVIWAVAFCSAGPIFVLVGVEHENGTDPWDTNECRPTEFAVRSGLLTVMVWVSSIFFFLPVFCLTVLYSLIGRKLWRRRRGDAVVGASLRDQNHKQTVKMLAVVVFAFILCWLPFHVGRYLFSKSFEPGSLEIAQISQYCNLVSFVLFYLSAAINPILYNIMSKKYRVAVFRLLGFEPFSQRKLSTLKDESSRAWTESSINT
Method: Isolated plasma membranes from the HEK293T cells with transfected human GHS-R1a receptor (Multispan, Hayward, Calif., USA) were used. […] Experiments were carried out in duplicates at least three times. Competitive binding curves were plotted using GraphPad Prism Software (San Diego, Calif., USA) while comparing the best fit for single binding sites models.

[1] = system: rat model of aortic stenosis-induced cachexia; test: Rat model of aortic stenosis-induced cachexia; assay type: in vivo; settings: 28-day continuous IP infusion
Method: Cachexia induced through the aortic stenosis (AS) was made in male Wistar rats, aged 8-9 months (Harlan, Italy). Rats were housed at a temperature of 22±2° C. under a daily cycle of 12/12 h light/dark (light from 6:00) with free access to water and a standard chow diet (Altromin, Germany).
The animals were anesthetized with isoflurane and the aortic stenosis was induced via abdominal incision. […] A steel wire (diameter 0.4 mm) was placed alongside the isolated aorta, both were gently tightened with a stitch (3-0 silk tread), and the wire was removed accordingly. […] Finally, the abdomen was sutured and the animals were kept in standard conditions with free access to regular rat chow and water ad libitum. The Sham group consisted of sham-operated rats prepared by a similar surgical treatment without aortic stenosis.
Mortality was about 5% within 72 h after stenosis. All animal experiments were approved by the Institutional Animal Experimental Ethics Committee of the Institute of Physiology AS CR. […] 2 dissolved in vehicle (2.5 mg/kg of body weight per day) for 28 days (n=5). Food intake and body weight of the rats was monitored every day.

fed C57BL/6 male mice = test: Effect of SC administered ghrelin analogs on food intake; assay type: in vivo; settings: for maximal effect at 5 mg/kg on food intake: SC 5 mg/kg, evaluated 480 min after administration; for ED50 (250 min after injection), effect on food intake: SC, fed mice
Method: All of the experiments followed the ethical guidelines for animal experiments and Czech Republic law 246/1992 and were approved by the committee for experiments with laboratory animals of the Academy of Sciences of the Czech Republic. Male C57BL/6 mice (Charles River, Germany) were housed at a temperature 22±2° C. under a daily cycle of 12/12 h light/dark (light from 6:00) with free access to water and a standard chow diet St-1 which contained […] of calories from protein, fat and carbohydrate, respectively, and its energy content was 3.4 kcal/g (Mlýn Kocanda, Praha, Czech Republic). Mice were placed into separate cages for one week before experiment, they had free access to water and food pellets. Closely before the experiment, the food pellets were removed from the cages. […] 15 min after the injection, mice were given preweighed food pellets. Food intake was monitored for 8-10 hours at 30-min intervals. Mice had free access to water during the experiment. Experiments were performed at least twice for each tested compound, each experimental group had at least 5 mice.
Data from food intake experiments were analyzed by one-way ANOVA followed by Dunnett's post-hoc test using GraphPad Prism Software (San Diego, Calif., USA), P<0.05 was considered statistically significant. ED50 values were calculated using GraphPad Prism Software as the dose of the tested compound required to elicit half-maximal effect at 250 min after administration of the corresponding compound.
Food intake was monitored for […] after administration of the compounds. ED50 values were determined 250 min after administration. Maximal effect on food intake was evaluated […] after administration of the compounds at a dose of 5 mg/kg of body weight. NT—not tested.

[2] = system: rat model of subtotal nephrectomy; test: Rat model of renal cachexia (subtotal nephrectomy, SNx); assay type: in vivo
Method: Male F344 rats (Harlan, Italy) were housed at a temperature of 22±2° C. under a daily cycle of 12/12 h light/dark (light from 6:00) with free access to water and a standard chow diet St-1 (Mlýn Kocanda, Praha, Czech Republic).
To induce renal dysfunction, 5/6 nephrectomy was performed to anesthetized 8-week-old rats (SNx group, n=14); the control group was sham-operated (Sham group, n=6). Starting from the following day, the rats were SC injected with saline or ghrelin analog no. 2 (5 mg/kg of body weight, dissolved in saline) for 15 days. Food intake and body weight of the rats was monitored every day. At the end of the experiment, blood was collected for determination of pro-inflammatory cytokines using the Milliplex MAP Rat Cytokine/Chemokine Magnetic Bead Panel (Merck-Millipore, St. Charles, Mo., USA).

[3] = Pharmacokinetics in vivo after SC administration to mice; settings: SC 5 mg/kg
Method: Mice were housed at a temperature 22±2° C. under a daily cycle of 12/12 h light/dark (light from 6:00) with free access to water and a standard chow diet St-1 (Mlýn Kocanda, Praha, Czech Republic).
4, 6, 14 and 18 at a dose of 5 mg/kg of body weight (0.2 ml/mouse, n=4). Blood was collected from tails before injection and 0.5, 1, 2, 4, 8, 16 and 24 h after injection. Plasma was separated and stored at −20° C.

[4] = 15-day SC 5 mg/kg, vs SNx/saline, 5 mg/kg

- % of ghrelin binding (human GHS-R1a receptor): 54%
Compound: CCCCCCCCCCCCCC(=O)NC[C@H](NC(=O)[C@H](CO)NC(=O)CNC)C(=O)N[C@@H](Cc1ccccc1)C(=O)N[C@@H](CC(C)C)C(=O)N[C@@H](CO)C(=O)N1CCC[C@H]1C(=O)N[C@@H](CCC(=O)O)C(=O)N[C@@H](Cc1c[nH]cn1)C(=O)N[C@@H](CCC(N)=O)C(=O)N[C@@H](CCCCN)C(=O)N[C@@H](C)C(=O)N[C@@H](CCC(N)=O)C(=O)N[C@@H](CCC(N)=O)C(=O)N[C@@H](CCCNC(=N)N)C(=O)N[C@@H](CCCCN)C(=O)N[C@@H](CCC(=O)O)C(=O)N[C@@H](CO)C(=O)N[C@@H](CCCCN)C(=O)N[C@@H](CCCCN)C(=O)N1CCC[C@H]1C(=O)N1CCC[C@H]1C(=O)N[C@@H](C)C(=O)N[C@@H](CCCCN)C(=O)N[C@@H](CC(C)C)C(=O)N[C@@H](CCC(N)=O)C(=O)N1CCC[C@H]1C(=O)N[C@@H](CCCNC(=N)N)C(=O)O [Analog 2]
- cachectic state [1]: improved the cachectic state
- body weight of AS rats ([1]; 2.5 mg/kg per day): significantly increased body weight
- maximal effect at 5 mg/kg on food intake (fed C57BL/6 male mice): 202.7 % of Dpr^3ghr
- ED50 (250 min after injection), effect on food intake (fed C57BL/6 male mice): 3.80 mg/kg
- levels of anti-inflammatory cytokine IL-10 (in words) ([2]; 15-day SC 5 mg/kg, vs SNx/saline): significantly increased
- body weight of SNx rats [2, 4]: significantly increased body weight
- levels of pro-inflammatory cytokines (in words) [2, 4]: significantly decreased levels of these cytokines; also recorded: reduced blood levels of pro-inflammatory cytokines
- cachectic state ([2]; repeated SC administration, SNx rats): improved the cachectic state

- % of ghrelin binding (human GHS-R1a receptor): 18%
- half-life ([3]; male, C57BL/6, mouse, plasma): 7 h
Compound: CCCCCCCCCCCCCC(=O)NC[C@H](NC(=O)[C@H](CO)NC(=O)CNC)C(=O)N[C@@H](CC1CCCCC1)C(=O)N[C@@H](CC(C)C)C(=O)N[C@@H](CO)C(=O)N1CCC[C@H]1C(=O)N[C@@H](CCC(=O)O)C(=O)N[C@@H](Cc1c[nH]cn1)C(=O)N[C@@H](CCC(N)=O)C(=O)N[C@@H](CCCCN)C(=O)N[C@@H](C)C(=O)N[C@@H](CCC(N)=O)C(=O)N[C@@H](CCC(N)=O)C(=O)N[C@@H](CCCNC(=N)N)C(=O)N[C@@H](CCCCN)C(=O)N[C@@H](CCC(=O)O)C(=O)N[C@@H](CO)C(=O)N[C@@H](CCCCN)C(=O)N[C@@H](CCCCN)C(=O)N1CCC[C@H]1C(=O)N1CCC[C@H]1C(=O)N[C@@H](C)C(=O)N[C@@H](CCCCN)C(=O)N[C@@H](CC(C)C)C(=O)N[C@@H](CCC(N)=O)C(=O)N1CCC[C@H]1C(=O)N[C@@H](CCCNC(=N)N)C(=O)O [Analog 6] (H-[Sar]S[Dap](Myristoyl)[Cha]LSPEHQKAQQRKESKKPPAKLQPR-OH; N-terminus and C-terminus assumed)
- maximal effect at 5 mg/kg on food intake (fed C57BL/6 male mice): 276.2 % of Dpr^3ghr
- ED50 (250 min after injection), effect on food intake (fed C57BL/6 male mice): 3.05 mg/kg
- stability in vivo compared with ghrelin or Dpr^3ghrelin [3]: significantly more stable than ghrelin or Dpr^3ghrelin

- % of ghrelin binding (human GHS-R1a receptor): 47%
Compound: CCCCCCCC(=O)NC[C@H](NC(=O)[C@H](CO)NC(=O)CNC)C(=O)N[C@@H](Cc1ccc(Cl)c(Cl)c1)C(=O)N[C@@H](CC(C)C)C(=O)N[C@@H](CO)C(=O)N1CCC[C@H]1C(=O)N[C@@H](CCC(=O)O)C(=O)N[C@@H](Cc1c[nH]cn1)C(=O)N[C@@H](CCC(N)=O)C(=O)N[C@@H](CCCCN)C(=O)N[C@@H](C)C(=O)N[C@@H](CCC(N)=O)C(=O)N[C@@H](CCC(N)=O)C(=O)N[C@@H](CCCNC(=N)N)C(=O)N[C@@H](CCCCN)C(=O)N[C@@H](CCC(=O)O)C(=O)N[C@@H](CO)C(=O)N[C@@H](CCCCN)C(=O)N[C@@H](CCCCN)C(=O)N1CCC[C@H]1C(=O)N1CCC[C@H]1C(=O)N[C@@H](C)C(=O)N[C@@H](CCCCN)C(=O)N[C@@H](CC(C)C)C(=O)N[C@@H](CCC(N)=O)C(=O)N1CCC[C@H]1C(=O)N[C@@H](CCCNC(=N)N)C(=O)O [Analog 13]
- maximal effect at 5 mg/kg on food intake (fed C57BL/6 male mice): 92.9 % of Dpr^3ghr

- % of ghrelin binding (human GHS-R1a receptor): 169%
Compound: CCCCCCCC(=O)NC[C@H](NC(=O)[C@H](CO)NC(=O)CN)C(=O)N[C@@H](Cc1ccccc1)C(=O)N[C@@H](CC(C)C)C(=O)N[C@@H](CO)C(=O)N1CCC[C@H]1C(=O)N[C@@H](CCC(=O)O)C(=O)N[C@@H](Cc1c[nH]cn1)C(=O)N[C@@H](CCC(N)=O)C(=O)N[C@@H](CCCCN)C(=O)N[C@@H](C)C(=O)N[C@@H](CCC(N)=O)C(=O)N[C@@H](CCC(N)=O)C(=O)N[C@@H](CCCNC(=N)N)C(=O)N[C@@H](CCCCN)C(=O)N[C@@H](CCC(=O)O)C(=O)N[C@@H](CO)C(=O)N[C@@H](CCCCN)C(=O)N[C@@H](CCCCN)C(=O)N1CCC[C@H]1C(=O)N1CCC[C@H]1C(=O)N[C@@H](C)C(=O)N[C@@H](CCCCN)C(=O)N[C@@H](CC(C)C)C(=O)N[C@@H](CCC(N)=O)C(=O)N1CCC[C@H]1C(=O)N[C@@H](CCCNC(=N)N)C(=O)O [Dpr^3ghrelin, reference compound]
- maximal effect at 5 mg/kg on food intake (fed C57BL/6 male mice): 100 % of Dpr^3ghr
- ED50 (250 min after injection), effect on food intake (fed C57BL/6 male mice): 0.82 mg/kg

More lines, now with the values behind:

Compound: CCCCCCCCCCCCCCCC(=O)NCCCC[C@H](NC(=O)[C@H](C)NC(=O)[C@@H]1CCCN1C(=O)[C@@H]1CCCN1C(=O)[C@H](CCCCN)NC(=O)[C@H](CCCCN)NC(=O)[C@H](CO)NC(=O)[C@H](CCC(=O)O)NC(=O)[C@H](CCCCN)NC(=O)[C@H](CCCNC(=N)N)NC(=O)[C@H](CCC(N)=O)NC(=O)[C@H](CCC(N)=O)NC(=O)[C@H](C)NC(=O)[C@H](CCCCN)NC(=O)[C@H](CCC(N)=O)NC(=O)[C@H](Cc1c[nH]cn1)NC(=O)[C@H](CCC(=O)O)NC(=O)[C@@H]1CCCN1C(=O)[C@H](CO)NC(=O)[C@H](CC(C)C)NC(=O)[C@H](Cc1cccc2ccccc12)NC(=O)[C@H](CNC(=O)CCCCCCC)NC(=O)[C@H](CO)NC(=O)CNC)C(=O)N[C@@H](CC(C)C)C(=O)N[C@@H](CCC(N)=O)C(=O)N1CCC[C@H]1C(=O)N[C@@H](CCCNC(=N)N)C(=O)O [Analog 9] (H-[Sar]S[Dap](Octanoyl)[1Nal]LSPEHQKAQQRKESKKPPAK(Palmitoyl)LQPR-OH; N-terminus and C-terminus assumed)
- % of ghrelin binding (human GHS-R1a receptor): 5%
- maximal effect at 5 mg/kg on food intake (fed C57BL/6 male mice): 171.1 % of Dpr^3ghr

Compound: CCCCCCCCCCCCCC(=O)NC[C@H](NC(=O)[C@H](CO)NC(=O)CNC)C(=O)N[C@@H](Cc1ccccc1)C(=O)N[C@@H](CC(C)C)C(=O)N[C@@H](CO)C(=O)N1CCC[C@H]1C(=O)N[C@@H](CCC(=O)O)C(=O)N[C@@H](Cc1c[nH]cn1)C(=O)N[C@@H](CCC(N)=O)C(=O)N[C@@H](CCCCN)C(=O)N[C@@H](C)C(=O)N[C@@H](CCC(N)=O)C(=O)N[C@@H](CCC(N)=O)C(=O)N[C@@H](CCCNC(=N)N)C(=O)N[C@@H](CCCCN)C(=O)N[C@@H](CCC(=O)O)C(=O)N[C@@H](CO)C(=O)O [Analog 18] (H-[Sar]S[Dap](Myristoyl)FLSPEHQKAQQRKES-OH)
- stability in vivo compared with ghrelin or Dpr^3ghrelin [3]: significantly more stable than ghrelin or Dpr^3ghrelin

Compound: (Sar)S(Dpr-N-myr)FLSPEHQKAQQRKESKKPPAKLQPR (XSXFLSPEHQKAQQRKESKKPPAKLQPR; Sar N-terminus; myristoylated Dpr; ghrelin analog) [Analog 2]
- IL-1α in blood plasma ([2]; SNx rats, 15-day SC 5 mg/kg): 392.3 ± 49.5 pg/mL
- IL-2 in blood plasma ([2]; SNx rats, 15-day SC 5 mg/kg): 28.1 ± 9.3 pg/mL
- IL-6 in blood plasma ([2]; SNx rats, 15-day SC 5 mg/kg): 337.3 ± 62.8 pg/mL
- IL-10 in blood plasma ([2]; SNx rats, 15-day SC 5 mg/kg): 150.7 ± 6.2 pg/mL
- TNF-α in blood plasma ([2]; SNx rats, 15-day SC 5 mg/kg): 32.6 ± 3.8 pg/mL
